From the SangsterLogP compilation come the findings set out here.

`CC(=O)Oc1cccc(O)c1` displayed a logP of 1.23.
Consider `CN(C)S(=O)(=O)c1ccc(N)cc1`, for which the logP stood at 0.67.
On to `O=[N+]([O-])c1cccc2ccc[n+]([O-])c12`, for which the logP stood at 0.04.
With `CNC(=O)Oc1cccc([N+](=O)[O-])c1` the figure was 1.39; with `Cc1cc(N)c(C)c(O)c1C(=O)O`, 3.38.
`O=C(O)CCCCn1nnc2ccccc21`: the logP was determined as 0.48.
With `CC(C)[N+](=O)[O-]` the figure was 0.93; with `O=[N+]([O-])c1cc(Cl)c(O)c(Cl)c1`, 2.94.
With `Nc1ccccc1C(=O)O` the figure was 1.21.
As to `CC(C)(C)[N+](=O)[O-]`, the lipophilicity (logP) worked out at 1.17.
Molecule `O=[N+]([O-])/C=C/c1ccccc1` registered a log partition coefficient (logP) of 2.11.
With `CC=Cc1ccccc1` the figure was 3.35; with `Brc1ccncc1`, 1.54; with `CC(CN1CCOCC1)C(C(=O)N1CCCC1)(c1ccccc1)c1ccccc1` (stereo unspecified), 3.61.
The value for `CC1=CC(=O)c2ccccc2C1=O` was 2.2; that for `Cc1ccnc(N)c1` was 0.56; that for `O=C(O)c1ccc(F)cc1` was 2.07.
With `CC(C)N(N=O)C(C)C` the figure was 1.38.
`COc1ccc(CN(CCN(C)C)c2ccccn2)cc1` showed a logP of 3.27.
Molecule `O=C(O)Cc1ccc(Cl)cc1` yielded a logP of 2.12.
The value for `CCCCN` was 0.97; that for `CCCNCCC` was 1.67; that for `CCCN(CC)CCC` was 2.68.
The value for `O/N=C/c1ccccc1` was 1.75; that for `CCC(=O)c1ccccc1` was 2.19; that for `CC1CCC(NC(=O)N(CCCl)N=O)CC1` (stereo unspecified) was 3.3.
`Cc1cccc(C)c1C`: the logP stood at 3.66.
Molecule `Cc1c[n+]([O-])c2ccccc2c1[N+](=O)[O-]` gave a log partition coefficient (logP) of 1.06.
The value for `O=C(O)c1ccccc1O` was 2.26; that for `CC(C)[C@H](N)C(=O)O` was -2.26.
Molecule `N=c1ccn(O)c2ccccc12` yielded a log partition coefficient (logP) of 0.05.
With `CN(C)C(=O)Nc1ccc(Cl)cc1` the figure was 1.94.
With `O=C(O)c1c(O)cccc1O` the figure was 2.2.
With `CCOc1ccc(O)cc1` the figure was 1.81; with `O=C(O)c1ccccc1Oc1ccccc1`, 3.11; with `CC(=O)Nc1ccc(C(=O)O)cc1`, 1.31.
For `ClC=C(Cl)Cl`, the logP amounted to 2.42.
In the case of `CNC(=O)Oc1cccc(C(C)=O)c1`, the logP was 0.9.
The value for `CC(C)C(=O)C(C#N)=NNc1ccc(Cl)cc1C(F)(F)F` was 5.67.
In turn, `CCCCc1ccc(C(=O)O)nc1` returned a logP of -1.29.
The value for `Cc1ccccc1OCC(=O)O` was 1.98.
The value for `O=[N+]([O-])c1cccc2ccccc12` was 3.19; that for `Cn1c(CO)cnc1[N+](=O)[O-]` was -0.03; that for `O=[N+]([O-])c1cccc2c1ccc[n+]2[O-]` was 0.49.
The value for `c1ccc2c(c1)ccc1c3ccccc3ccc21` was 5.81; that for `Nc1nc(N)c2ncn([C@H]3C[C@H](F)[C@@H](CO)O3)c2n1` was 0.05; that for `CCCCCCCCCCCC(=O)O` was 4.6.
`CCOC(=O)C1(c2ccccc2)CCN(C)CC1` came in with a logP of 2.72.
The value for `O=C(O)Cc1cccc(I)c1` was 2.62.
With `Cc1cc2ccccc2n1C` the figure was 2.82; with `CCCN(CCC)S(=O)(=O)c1ccc(C(=O)O)cc1`, 3.21.
Molecule `O=C(c1ccccc1)c1ccc(O)cc1` yielded a logP of 3.07.
With `Brc1cccnc1` the figure was 1.6; with `Cc1cccc(N)c1`, 1.4; with `CNc1ccc(S(N)(=O)=O)cc1`, 0.08.
In the case of `O=[N+]([O-])c1cc[n+]([O-])c2ccccc12`, the logP was determined as 1.09.
The molecule `Nc1ccc(-c2ccc(N)cc2)cc1` gave a logP of 1.34.
The value for `NC(=O)c1ccc(Br)cc1` was 1.76; that for `NNc1ccccc1` was 1.25.
As to `Oc1cccc(Br)c1`, the logP is 2.63.
The value for `COC1C(Cl)C(Cl)C(Cl)C(Cl)C1OC` (stereo unspecified) was 2.82; that for `NC(=O)N(CCCl)N=O` was 0.57.
With `CC1=c2[nH]c3c(c2CCN1)C=CC(=O)C=3` the figure was 2.19.
The value for `CCCc1ccc(S(N)(=O)=O)cc1` was 1.64; that for `COc1ccc2c(c1)N(CCCN(C)C)c1ccccc1S2` was 4.9; that for `O=C(O)c1ccccc1Cl` was 2.05.
`CC(=O)c1ccc(S(=O)(=O)NC(=O)NC2CCCCC2)cc1` returned a logP of 2.44.
In turn, `NC(=O)/C=C/c1ccccc1` showed a log partition coefficient (logP) of 1.43.
With `CCCCCC1Nc2cc(C(F)(F)F)c(S(N)(=O)=O)cc2S(=O)(=O)N1` (stereo unspecified) the figure was 2.66; with `NCCCC[C@H](N)C(=O)O`, -3.05; with `O=C(O)COc1ccc(Cl)cc1Cl`, 2.81.
The molecule `NCc1cccnc1` returned a logP of -0.32.
`Cc1cc(Cl)ccc1O` gave a logP of 2.63.
With `CCN(CC)N=O` the figure was 0.48; with `Cn1c([N+](=O)[O-])cnc1/C=C/c1ccnc(N)n1`, 0.85; with `Nc1cccc(O)c1`, 0.21.
As to `CNC(=O)Oc1cccc(C#N)c1`, the logP was found to be 0.97.
The value for `O=C(O)CCCc1ccccc1` was 2.42; that for `CC#N` was -0.34.
Consider `Cc1cc(C)c(C)cc1C`, for which the logP is 4.
The value for `CN1CC[C@]23c4c5ccc(O)c4O[C@H]2C(=O)CC[C@@]3(O)[C@H]1C5` was 0.83; that for `CC(=O)S[C@@H]1CC2=CC(=O)CC[C@]2(C)[C@H]2CC[C@@]3(C)[C@@H](CC[C@@]34CCC(=O)O4)[C@H]12` was 2.78.
With `C[C@H](CS)C(=O)N1CCC[C@H]1C(=O)O`, the lipophilicity (logP) was determined as 0.34.
As for `COC(=O)C(C#N)=NNc1ccc(S(=O)(=O)C(F)(F)F)cc1`, the logP was 4.22.
With `COc1ccc(NS(=O)(=O)c2ccc(N)cc2)cc1` the figure was 1.51; with `Oc1ccccc1O`, 0.88.
On to `CCCCC1(CC)C(=O)NC(=O)NC1=O`, for which the logP came to 1.73.
As for `C[C@]12C[C@H](O)[C@H]3[C@@H](CCC4=CC(=O)CC[C@@]43C)[C@@H]1CC[C@@H]2C(=O)CO`, the logP stood at 1.94.
`O=C(O)COc1ccc(Cl)cc1` had a logP of 2.25.
With `CCCCCC=O` the figure was 1.78.
With `N#Cc1ccc(C(=O)O)cc1` the figure was 1.56; with `CCc1ccccc1N`, 1.74; with `NC(=O)c1cc([N+](=O)[O-])cc([N+](=O)[O-])c1`, 0.83.
The value for `Cc1ccc(C(C)C)cc1` was 4.1; that for `CCCCCCCN` was 2.57.
Consider `CCN(CC)c1ccccc1`, for which the logP came to 3.31.
Take `NS(=O)(=O)c1cc2c(cc1Cl)N=CNS2(=O)=O`: the logP is -0.24.
Regarding `Oc1cccc(F)c1`, the logP amounted to 1.93.
In turn, `CCCn1nnc2ccccc21` gave a logP of 2.13.
The value for `COc1ccc(C(=O)O)cc1` was 1.96.
The value for `CC(=O)c1ccc(Cl)cc1` was 2.32; that for `NS(=O)(=O)c1ccccc1Cl` was 0.74.
Molecule `Oc1c(F)c(F)c(F)c(F)c1F` yielded a logP of 3.23.
The value for `CC1(C)S[C@@H]2[C@H](NC(=O)C(C(=O)O)c3ccccc3)C(=O)N2[C@H]1C(=O)O` (stereo partly specified) was 1.13; that for `Cc1cc(Cl)ccc1NN=C(C#N)C(=O)C(C)C` was 4.31.
With `O=C1C=CC(=NO)C=C1` the figure was 1.08.
`CBr` returned a log partition coefficient (logP) of 1.19.
The value for `O=c1ccn([C@@H]2O[C@H](CO)[C@@H](O)[C@H]2O)c(=O)[nH]1` was -1.98.
`O=C1O[C@H]([C@@H](O)CO)C(O)=C1O`: the logP is -1.85.
With `O=[N+]([O-])c1cccc2c1c([N+](=O)[O-])cc[n+]2[O-]` the figure was 0.95.
`Oc1ccc(O)cc1` returned a lipophilicity (logP) of 0.59.
The value for `O=C(c1ccccc1)c1ccncc1` was 1.98; that for `c1ncc2[nH]cnc2n1` was -0.37; that for `CN(N=O)C(N)=O` was -0.03.
`O=[N+]([O-])c1ccccc1O` had a logP of 1.79.
The value for `COc1cccc(N)c1` was 0.93.
The molecule `COc1ccc(C(C)=O)cc1` yielded a logP of 1.74.
With `NS(=O)(=O)c1ccc([N+](=O)[O-])cc1` the figure was 0.64; with `CF`, 0.51.
The value for `Clc1cccc(Cl)c1` was 3.53.
The molecule `O=C(O)c1cccc(F)c1` gave a logP of 2.15.
In turn, `CN(C)CCC(c1ccc(Cl)cc1)c1ccccn1` (stereo unspecified) registered a logP of 3.38.
With `CC(=O)c1ccc(C)cc1` the figure was 2.1; with `Nc1nc(O)c2ncn([C@H]3CC[C@@H](CO)O3)c2n1`, -1.01.
With `COc1ccc2c3c1O[C@H]1[C@@H](O)C=C[C@H]4[C@@H](C2)N(C)CC[C@@]341` the figure was 1.19.
With `CC(=O)Nc1ccc(F)cc1` the figure was 1.47; with `Cc1ccnc2c(O)cccc12`, 2.41.
Consider `O=C(O)Cc1ccc(O)cc1`, for which the logP was found to be 0.75.
Turning to `O=S(=O)(c1ccccc1)c1ccccc1`, the logP was found to be 2.4.
`CC(=O)c1ccc([N+](=O)[O-])cc1`: the logP was 1.53.
The value for `N#Cc1ccccc1O` was 1.61.
`C1CC1` gave a logP of 1.72.
For `O=C(O)c1ccccc1Nc1cccc(C(F)(F)F)c1`, the lipophilicity (logP) was determined as 5.25.
For the molecule `CC(C)NCC(O)COc1cccc2[nH]ccc12` (stereo unspecified), the logP is 1.75.
Take `CC(C)NCC(O)c1ccc(NS(C)(=O)=O)cc1` (stereo unspecified): the logP was 0.24.
With `Nc1ccccc1` the figure was 0.9; with `Nc1ccn([C@H]2C[C@H](F)[C@@H](CO)O2)c(=O)n1`, -0.89.
With `Cc1ncc(CO)c(CN)c1O` the figure was -1.3.
With `O=C1CC(=O)NC(=O)N1` the figure was -1.47; with `CN1CCc2cccc3c2C1Cc1ccc(O)c(O)c1-3` (stereo unspecified), 2.3.
The molecule `Nc1nc2c(ncn2[C@H]2C[C@H](O)[C@@H](CO)O2)c(=S)[nH]1` showed a lipophilicity (logP) of -0.79.
